# Experimental data as given in patent US9198915B2, “Methods involving aldose reductase inhibitors” (The Board of Regents of The University of Texas System, priority 2007, dated 2015).
# Experiments:
# NF-κB = assay: NF-κB-dependent SEAP reporter assay in TNF-α- or LPS-treated SAEC; type: cell-based, human
# Experimental: SAEC cells (1×10^5 cells/well) were plated in 24-well plates, serum starved in basal medium with AR inhibitor, sorbinil and zopolrestate (20 μM) or carrier for 24 h, and transiently transfected with pNF-κB-secretory alkaline phosphatase (SEAP) construct or control plasmid pTALSEAP DNA (Clontech, Palo Alto, Calif.) using the LipofectAMINE Plus reagent. After 6 hours of transfection medium was replaced with fresh medium and cells were incubated with either TNF-α (2 nM) or LPS (1 μg/mL) or carrier for 48 h. The cell culture medium was then harvested and analyzed for SEAP activity, essentially as described by the manufacturer (Clontech, Palo Alto, Calif.), using a 96-well chemiluminescence plate reader.
# SAEC = assay: RW-induced apoptosis in SAEC (annexin V/PI flow cytometry); type: cell-based, human; details: zopolrestat 20 μM, RW 150 μg/ml, 18 h
# Experimental: Small Airway Epithelial cells (SAEC) obtained from Cambrex Bio Science Walkersville, Inc. (Walkersville, Md.) contains normal human SAEC from distal airspace of donor. The cells were cultured according to the supplier's instructions at 37° C. in humidified atmosphere containing 95% air and 5% CO2 in small airway epithelial basal medium (SABM) with supplements containing 52 μg/ml bovine pituitary extract, 0.5 ng/ml human recombinant epidermal growth factor (EGF), 0.5 μg/ml epinephrine, 1 μg/ml hydrocortisone, 10 μg/ml transferrin, 5 μg/ml insulin, 0.1 ng/ml retinoic acid (RA), 6.5 ng/ml triiodothyronine, 50 μg/ml Gentamicin/Amphotericin-B (GA-1000), and 50 μg/ml fatty acid-free bovine serum albumin (BSA).
# Approximately 2×10^5 SAEC/well were plated in 6-well plates in triplicate for each group. After 24 hours, the medium was replaced with serum-free SABM with or without zopolrestat (20 μM). The cells were induced by RW (150 μg/mL) and incubated for 18 h. Apoptotic cell death was examined using the annexin V-FITC/PI, (molecular probes, Invitrogen) according to the manufacturer's instructions. Twenty thousand events were acquired for each sample and analyzed by flow cytometry using the LYSIS II software (FACScan, BD Pharmingen).
# NF-κB and AP-1 = assay: RW-induced NF-κB and AP-1 activation in SAEC (EMSA); type: cell-based, human
# Experimental: The SAEC were pretreated with or without AR inhibitors for 24 h in starving medium, followed by treatment with Ragweed pollens (RW) (50 μg/ml) for 2 h at 37° C. The nuclear extracts were prepared as described. Briefly, SAEC were harvested and washed with cold PBS and suspended in 0.1 ml of hypotonic lysis buffer containing protease inhibitors for 10 min. The cells were then lysed with 5 μl of 10% Nonidet P-40. The homogenate was centrifuged (6000 rpm; 1 min.), and supernatant containing the cytoplasmic extracts was stored frozen at −80° C. The nuclear pellet was resuspended in 50 μl ice-cold nuclear extraction buffer. After 30 min of intermittent mixing, the extract was centrifuged (12000 rpm; 15 min.), and supernatants containing nuclear extracts were secured. The protein content was measured by the Bradford method. If they were not used immediately, they were stored at −80° C. The Consensus oligonucleotides for NF-κB and AP-1 transcription factors were 5′-end labeled using T4 polynucleotide kinase. EMSA was performed as described. The specificity of the assay was examined by competition with an excess of unlabeled oligonucleotide and supershift assays with antibodies to p65.
# [1] = tested on: TNF-α, NO and PGE2 in aqueous humor; assay: EIU: TNF-α, NO and PGE2 in aqueous humor (ELISA kits); type: in vivo, rat; details: 6 and 24 h after EIU-induction
# Experimental: Six to eight-weeks-old male Lewis rats weighing approximately 150-160 g were used in this study (n=6). All animals were kept in the UTMB's Animal Care Center. All the animal studies were conducted in compliance with the ARVO statement for the use of Animals in Ophthalmic and Vision Research. EIU was induced by a subcutaneous injection of Escherichia coli LPS (200 μg) dissolved in phosphate-buffered saline (PBS, pH 7.4). Rats in ART and ETU+ARI groups were injected intraperitoneally with AR inhibitor zopolrestat (25 mg/kg body weight) dissolved in dimethyl-sulfoxide (DMSO) 24 h before and immediately after LPS injection. Rats of control group received carrier (PBS+20% DMSO) injection.
# The levels of TNF-α in the AqH (stored at −80° C.) were assessed with commercially available ELISA kit, according to the manufacturer's instructions. The total level of nitrate plus nitrite in the AqH was measured by using a total nitrite colorimetric assay ([…]) kit according to the manufacturer's instructions. PGE2 production was measured by enzyme immunoassay kit following the manufacturer's instructions.
# [2] = tested on: Cox-2, iNOS, Bax, Bcl-xl, cyclin D1, E2F2; assay: TNF-α- and LPS-induced inflammatory, apoptosis and cell cycle proteins in SAEC (Western blotting); type: cell-based, human; details: TNF-α 2 nM or LPS 1 μg/ml, 24 h
# Experimental: The cells after incubations were lysed in RIPA lysis buffer, and forty micrograms of cytoplasmic proteins were resolved on 10% SDS-PAGE gel. After electrophoresis, the proteins were electro-transferred to a nitrocellulose membrane, blocked with 5% nonfat milk in TBST, and probed with antibodies against COX-2, NOS2, Bax, cyclin D1, E2F2 (1:1,000 dilution) for 2 hr. The blot was then washed, exposed to HRP-conjugated secondary antibodies (1:5,000 dilution) for 1 hr, and the antigen-antibody complex was detected by enhanced chemiluminescence (Amersham Pharmacia Biotech, Piscataway, N.J., USA).
smiles,measurement,setting,value
O=C(O)Cc1nn(Cc2nc3cc(C(F)(F)F)ccc3s2)c(=O)c2ccccc12 [zopolrestat],inhibition at 20 µM,"NF-κB; Homo sapiens, SAEC, AR inhibitor 20 μM, TNF-α 2 nM or LPS 1 μg/mL, 48 h, read-out: inhibition of TNF-α- and LPS-induced NF-κB-dependent SEAP activation",> 60%
same,"basal NF-κB-SEAP activity, compound alone",NF-κB; no TNF-α or LPS,did not affect
same,prevention of RW-induced cell death,SAEC,> 80%
same,prevention of RW-induced NF-κB activation and nuclear translocation,NF-κB and AP-1; RW 50 μg/ml,> 80%
same,"basal NF-κB activity, compound alone",NF-κB and AP-1; no RW,did not affect
same,reduction of TNF-α concentration in AqH,[1],> 60%
same,TNF-α- and LPS-induced increase of Cox-2 and iNOS protein expression,[2],significantly prevented this increase
